Patent US8338599B2, “Compounds having a potentiating effect on the activity of ethionamide and uses thereof” (priority 2006, dated 2012)

Experiments:
M. bovis BCG = assay type: cell-based, M. bovis BCG 1173P2; conditions: from MIC of ETH alone (6 μM) and MIC of ETH with 25 μM compound
EthR protein [1] = target: T1, EthR protein (Mycobacterium tuberculosis, UniProt P9WMC1); test: Inhibition of interaction of EthR with its target DNA sequence (BIAcore); assay type: binding, M. tuberculosis H37Rv; conditions: compound 3 μM, EthR 540 nM, 37° C.
Procedure: a) Measurement of the Activity of the Compounds on the Inhibition of Interaction of EthR with its Target DNA Sequence
The in vitro measurements of inhibition of binding of the EthR protein to its target DNA sequence were performed on a machine of BIAcore®2000 type (AB, Uppsala, Sweden).
The chips used are CM5 chips sold by the company GE Healthcare. Both the channels of a chip were activated with a solution containing 200 mM of EDC(N-ethyl-N′-(3-[…])carbodiimide) and 50 mM of NHS (N-hydroxysuccinimide). Next, streptavidin (500 ng/μl in a solution containing 10 mM of sodium acetate (pH 3.5) was injected over 12 minutes at a flow rate of 10 μl/minute. The 106-base-pair biotinylated DNA fragment corresponding to the ethA-R intergene region was deposited on one of the two channels of the chip at a rate of 200 ng/ml in order to obtain stable binding of streptavidin corresponding to 50 RU (resonance units). This DNA fragment was obtained by PCR using the chromosomal DNA of M. tuberculosis H37Rv as matrix and O-270: 5′-[…]-3′ (SEQ ID: No. 1) and O-271: 5′-biotin-[…]-3′ (SEQ ID: No. 2). The second channel was functionalized with a 113-base-pair biotinylated DNA fragment (fragment +14 to +127 of the bla gene of E. coli PCR-amplified using the following oligonucleotides: O-343: 5′-[…]-3′ (SEQ ID: No. 3) and O-344: 5′-biotin-[…]-3′ (SEQ ID: No. 4).
Measurement of the binding of the EthR protein to the immobilized DNA was performed at 37° C. in a reference buffer containing 10 mM of Tris-HCl (pH=7.5), 200 mM of NaCl, 0.1 mM of EDTA, 1 mM of DTT and 1% of DMSO at a flow rate of 20 μl/minute. The specific interaction (SI) of EthR with the 106-base-pair double-stranded DNA sequence, expressed in resonance units, corresponds to the difference in signal observed between the two channels.
For each inhibition measurement, the compounds of the invention are dissolved in the reference buffer at a concentration of 3 μM. The compounds of the invention are then incubated in the presence of the protein (540 nM) at 37° C. for 5 minutes, and each solution is then injected onto the two channels of the chip for 3 minutes at a flow rate of 20 μl/minute. The inhibition values are calculated at the end of the injection according to the following equation: […]
in which SIEthR corresponds to the value measured without ligand and SIEthR+ligand corresponds to the value measured in the presence of to ligand.

EthR protein [2] = target: T1, EthR protein; test: In vitro measurement of the IC50 (EthR/DNA binding, BIAcore); design: species or system M. tuberculosis H37Rv; conditions: six concentrations from 0.11 μM to 27 μM; read-out: IC50
Procedure: b) In Vitro Measurement of the IC50 of the Compounds of the Invention.
The in vitro measurement of this datum was performed according to the same principle as for the measurement of inhibition of the EthR/DNA binding using the BIAcore technique.
The specific interaction between EthR and the specific 106-bp DNA fragment was measured on a range of six concentrations of the compounds of the invention, this range extending from 0.11 μM to 27 μM. The IC50 values are then extrapolated from the sigmoid curves obtained.

T1 sequence (P9WMC1 whole entry, looked up): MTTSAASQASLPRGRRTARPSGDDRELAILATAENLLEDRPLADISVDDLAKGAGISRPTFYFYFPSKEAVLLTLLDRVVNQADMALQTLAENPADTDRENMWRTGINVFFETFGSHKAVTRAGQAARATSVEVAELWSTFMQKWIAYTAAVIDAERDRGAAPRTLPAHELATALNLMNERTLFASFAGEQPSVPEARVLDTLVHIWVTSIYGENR

| Structure (SMILES) | Potentiation % (M. bovis BCG) [%] | inhibition at 3 µM (EthR protein [1]) [%] | IC50 (EthR protein [2]) [nM] |
| --- | --- | --- | --- |
| [N-]=[N+]=NCC(=O)N1CCC(c2nc(-c3ccsc3)no2)CC1 [Compound 3, 2-azido-1-[4-(3-thiophen-3-yl[1,2,4]oxadiazol-5-yl)piperid-1-yl]ethanone] | 500 | 14 | – |
| [N-]=[N+]=NCC(=O)N1CCC(c2nc(-c3ccccc3)no2)CC1 [Compound 4, 2-azido-1-[4-(3-phenyl[1,2,4]oxadiazol-5-yl)piperid-1-yl]ethanone] | 500 | 15 | – |
| COc1ccc2nc(-c3noc(C4CCN(C(=O)CN=[N+]=[N-])CC4)n3)sc2c1 [Compound 15] | – | 94 | 1560 |
| C#CCCC(=O)N1CCC(c2nc(-c3cccs3)no2)CC1 [Compound 21, 1-[4-(3-thiophen-2-yl[1,2,4]oxadiazol-5-yl)piperid-1-yl]pent-4-yn-1-one] | 500 | 20 | – |
| CC(C)CCC(=O)N1CCC(c2nc(-c3cccs3)no2)CC1 [Compound 25, 4-methyl-1-[4-(3-thiophen-2-yl[1,2,4]oxadiazol-5-yl)piperid-1-yl]pentan-1-one] | 500 | 70 | 910 |
| O=C(CCC(F)(F)F)N1CCC(c2nc(-c3cccs3)no2)CC1 [Compound 27, 4,4,4-trifluoro-1-[4-(3-thiophen-2-yl[1,2,4]oxadiazol-5-yl)piperid-1-yl]butan-1-one] | 500 | 96 | 1570 |
| O=C(CCC1CCCC1)N1CCC(c2nc(-c3cccs3)no2)CC1 [Compound 34, 3-cyclopentyl-1-[4-(3-thiophen-2-yl[1,2,4]oxadiazol-5-yl)piperid-1-yl]propan-1-one] | – | 48 | – |
| O=C(CC1CCCCC1)N1CCC(c2nc(-c3cccs3)no2)CC1 [Compound 37, 2-cyclohexyl-1-[4-(3-thiophen-2-yl[1,2,4]oxadiazol-5-yl)piperid-1-yl]ethanone] | – | 76 | 3490 |
| O=C(CC1CC2CCC1C2)N1CCC(c2nc(-c3cccs3)no2)CC1 (stereo not drawn) [Compound 40, 2-bicyclo[2.2.1]hept-2-yl-1-[4-(3-thiophen-2-yl[1,2,4]oxadiazol-5-yl)piperid-1-yl]ethanone] | – | 59 | – |
| O=C(Cc1ccccc1)N1CCC(c2nc(-c3cccs3)no2)CC1 [Compound 41, 2-phenyl-1-[4-(3-thiophen-2-yl[1,2,4]oxadiazol-5-yl)piperid-1-yl]ethanone] | – | 45 | – |
| S=C(Nc1ccccc1)N1CCC(c2nc(-c3cccs3)no2)CC1 [Compound 49, 4-(3-thiophen-2-yl[1,2,4]oxadiazol-5-yl)piperidine-1-carbothioic acid phenylamide] | – | 86 | 1340 |
| S=C(NC1CC1)N1CCC(c2nc(-c3cccs3)no2)CC1 [Compound 52, 4-(3-thiophen-2-yl[1,2,4]oxadiazol-5-yl)piperidine-1-carbothioic acid cyclopropylamide] | – | 61 | – |
| O=S(=O)(Cc1ccccc1)N1CCC(c2nc(-c3cccs3)no2)CC1 [Compound 53, 1-phenylmethanesulfonyl-4-(3-thiophen-2-yl[1,2,4]oxadiazol-5-yl)piperidine] | – | 34 | – |
| O=C(CC1CC1)N1CCC(c2nc(-c3cccc(N(Cc4ccccc4)Cc4ccccc4)c3)no2)CC1 [Compound 57, 2-cyclopropyl-1-{4-[3-(3-dibenzylaminophenyl)[1,2,4]oxadiazol-5-yl]piperid-1-yl}ethanone] | – | 46 | – |
| O=C(Cc1cccs1)N1CCC(c2nc(-c3ccc(Br)s3)no2)CC1 [Compound 58, 1-{4-[3-(5-bromothiophen-2-yl)[1,2,4]oxadiazol-5-yl]piperid-1-yl}-2-thiophen-2-ylethanone] | – | 34 | – |
| N#CCC(=O)N1CCC(c2nc(-c3ccc(Br)s3)no2)CC1 [Compound 59, 3-{4-[3-(5-bromothiophen-2-yl)[1,2,4]oxadiazol-5-yl]piperid-1-yl}-3-oxo-propionitrile] | – | 77 | 390 |
